The numbers were not newly measured in the Kinase Knowledgebase extract (Sharma et al. 2016), which cites them from elsewhere.

The data set deals with MAPK14 (human) (UniProt Q16539). In words: Assessment of MAPK14 Kinase Activity.
Chain of MAPK14 (human) (Q16539 whole entry, looked up): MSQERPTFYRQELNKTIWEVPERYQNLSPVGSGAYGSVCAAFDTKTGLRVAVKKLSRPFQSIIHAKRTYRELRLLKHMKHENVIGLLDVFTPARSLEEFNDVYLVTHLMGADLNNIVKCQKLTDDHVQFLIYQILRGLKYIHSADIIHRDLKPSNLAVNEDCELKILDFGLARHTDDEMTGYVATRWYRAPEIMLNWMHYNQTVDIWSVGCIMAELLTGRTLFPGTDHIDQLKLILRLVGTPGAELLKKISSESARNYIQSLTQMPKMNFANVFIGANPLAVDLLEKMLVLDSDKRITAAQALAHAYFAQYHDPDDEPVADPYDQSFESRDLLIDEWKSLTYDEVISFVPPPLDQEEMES
Take `Cc1ccc(C(=O)NC2CC2)cc1-c1cc2cnn(-c3ccccc3Cl)c2n(C)c1=O`: the IC50 (usually the concentration that gives 50% inhibition) was 0.899 nM.

As to `Cn1c(=O)cc(NC2CCOCC2)c2cnn(-c3cccc(F)c3)c21`, the IC50 is 1000 nM.

Regarding `Cn1c(=O)cc(Nc2ccc(F)cc2)c2cnn(-c3c(F)cccc3F)c21`, the IC50 is 1000 nM. Turning to `Cc1ccc(C(=O)NC2(C)CC2)cc1-c1cc2cnn(-c3c(F)cccc3F)c2n(C)c1=O`, the IC50 is 1.7 nM. Turning to `Cc1ccc(C(=O)NC2CC2)cc1-c1cc2cnn(-c3ccccc3C)c2n(C)c1=O`, the IC50 is 1.9 nM. For `Cc1ccc(C(=O)Nc2ccon2)cc1-c1cc2cnn(-c3c(F)cccc3F)c2n(C)c1=O`, the IC50 is 1 nM. For `Cc1ccc(C(=O)NC2CC2)cc1-c1cc2cnn(-c3cc(F)ccc3F)c2n(C)c1=O`, the IC50 is 1.9 nM. For `CNc1noc2c(-c3cc4cnn(-c5c(F)cccc5F)c4n(C)c3=O)c(C)ccc12`, the IC50 was 2 nM. As for `Cc1ccc(C(=O)NC2CC2)cc1-c1cc2cnn(-c3ncccc3C(F)(F)F)c2n(C)c1=O`, the IC50 was 2.3 nM. Consider `Cc1c(F)cc(C(=O)NC2CC2)cc1-c1cc2cnn(-c3c(F)cccc3F)c2n(C)c1=O`, for which the IC50 was 0.8 nM. Regarding `Cc1ccc(C(=O)O)cc1Nc1cc(=O)n(C)c2c1cnn2-c1ccc(F)cc1F`, the half-maximal inhibitory concentration (IC50) was 1000 nM. Turning to `Cc1ccc(C(N)=O)cc1-c1cc2cnn(-c3c(F)cccc3F)c2n(C)c1=O`, the IC50 is 1.5 nM. With `CCn1c(=O)c(-c2cc(C(=O)NC3CC3)ccc2C)cc2cnn(-c3ccc(F)cc3F)c21`, the IC50 is 0.6 nM. For the molecule `Cn1c(=O)cc(Nc2ccc(F)cc2F)c2cnn(-c3ccc(F)cc3F)c21`, the IC50 was 1000 nM.
